Test [1] relates to human three-dimensional culture epidermal model (LabCyte EPI-MODEL). Kind of test: Production of skin irritation mediators induced by PMA in human three-dimensional epidermal culture model (Experiment 1). Format: cell-based. Conditions: for activity at 0.1 % / activity at 0.01 % / activity at 1 %: Homo sapiens, 48 hours; for activity at 0.1 %: test substance 0.1 mass % with PMA in olive oil; for Effect on skin irritation mediator production by PMA (in words): summary of Table 1; for activity at 0.01 %: test substance 0.01 mass % with PMA in olive oil; for activity at 1 %: test substance 1 mass % with PMA in olive oil. An excerpt: Changes in production amounts of skin irritation mediators by test substances were examined when cutaneous irritants were caused to act on a human three-dimensional culture epidermal model.
(§1) A human three-dimensional epidermal culture model obtained by multilayer-culturing a human normal epidermal cell (LabCyte EPI-MODEL, manufactured by Japan Tissue Engineering Co., Ltd.) was used. LabCyte is a cultured skin cultured in a transwell. For the experiment, LabCyte was used with the transwell.
As test substances, there were used cholesterol (manufactured by Wako Pure Chemical Industries, Ltd.), β-sitosterol (manufactured by TAMA BIOCHEMICAL CO., LTD.), α-spinasterol (manufactured by ChromaDex, Inc.), ergosterol (manufactured by Wako Pure Chemical Industries, Ltd.), campesterol (manufactured by TAMA BIOCHEMICAL CO., LTD.), glycyrrhizin (manufactured by Wako Pure Chemical Industries, Ltd.), glycyrrhetinic acid (manufactured by Wako Pure Chemical Industries, Ltd.), ginsenoside (manufactured by Wako Pure Chemical Industries, Ltd.), squalene (manufactured by Wako Pure Chemical Industries, Ltd.), squalane (manufactured by Tokyo Chemical Industry Co., Ltd.) and lanosterol (manufactured by ChromaDex, Inc.), which are candidates of a skin irritation suppressant.
As skin irritants, Phorbol 12-Myristate 13-Acetate (PMA, manufactured by Wako Pure Chemical Industries, Ltd.) was used. In addition, as vehicle, olive oil (manufactured by Wako Pure Chemical Industries, Ltd.) was used.
Experiments were conducted by the following group composition. • PMA Only Group: A group with addition of only 0.00001 mol of PMA dispersed in a vehicle, as a test solution. • Test Substance Group: A group with addition of 0.00001 mol of PMA and the test substance which were dispersed in a vehicle, as a test solution.
(§2) The experiment was conducted as below. First, LabCyte was put into a 24-well assay plate. Then, 1 ml of assay medium (Japan Tissue Engineering Co., Ltd.) was added so that it was brought into contact with a bottom surface of the cultured skin in each well of the 24-well assay plate, and was pre-cultured in an incubator with 5% of carbon dioxide concentration at 37° C. for 1 hour.
Next, a cell survival rate was measured by the MTT method after causing the test solutions of each group to act. Specifically, 50 μL of the test solution of each group was added to the surface of the LabCyte after preculture, was cultured in the incubator with 5% of carbon dioxide concentration at 37° C. for 48 hours, then was transferred to the assay medium comprising 0.5 mg/ml of MTT reagent, and was cultured in the incubator with 5% of carbon oxide level at 37° C. for 3 hours. Then, LabCyte was immersed in 0.3 ml of an isopropanol solution, and the produced blue-purple formazan was extracted for 2 hours. After extraction, an absorbance at 570 nm was measured by a 96 microplate reader. The cell survival rate was calculated as below.
Cell survival rate (%)=(absorbance of Test Substance Group)/(absorbance of PMA Only Group)×100
Subsequently, a production amount of the skin irritation mediator at a test substance concentration with 80% or more of cell survival rate was measured. As skin irritation mediators, PGE2, IL-1α, IL-6, IL-8 were measured.
(§3) The test solutions of each group were added to the cells, the culture solutions incubated for 48 hours were collected, and a production amount of each skin irritation mediator was measured. The skin irritation mediator was measured by using a commercially available ELISA kit (manufactured by R&D Systems, Inc.). A relative production amount of the skin irritation mediator in each test substance was calculated as below, when the production amount of the skin irritation mediator in the PMA Only Group was set to 100.
Relative production amount=(production amount of the mediator in Test Substance Group)/(production amount of the mediator in PMA Only Group)×100

Test [2] relates to croton oil-induced mouse ear swelling. Kind of test: Suppression of croton oil-induced mouse ear swelling reaction (Experiment 3). In kind it is in vivo. As to conditions: for Inhibition Ratio Of Ear Swelling: ddY female mouse, 1% by mass of test substance in 2% croton oil solution, 25 μL on ears, auricular thickness 6 hours after; for Effect on croton oil-induced mouse ear swelling reaction (in words): summary of Table 3. The text has this:
<Suppression of Croton Oil-Induced Mouse Ear Swelling Reaction by the Test Substances>
Suppression of mouse ear swelling was examined through the use of croton oil (Wako Pure Chemical Industries, Ltd.) as a swelling inducer. A 7-week-old ddY female mouse (SPF) was subjected to an experiment. As test substances, cholesterol, glycyrrhizin, glycyrrhetinic acid, squalene, ergosterol, squalane and lanosterol were used. As a vehicle, acetone (Wako Pure Chemical Industries, Ltd.) was used.
Experiments were conducted by the following group composition. • Positive Control Group: A group which received only the vehicle as a primary test solution, and one hour after, received a 2% croton oil solution as a secondary test solution. • Test Substance Group: A group in which only the vehicle was administered as a primary test solution, and one hour after, a 2% croton oil solution including 1% by mass of test substance was administered as a secondary test solution.
An inhibition ratio of ear swelling was calculated as below. In this test, a […] inflammation model is used to examine immediate swelling reactions. In accordance with the group composition, 25 μL of the primary test solution was uniformly coated on back sides of both ears in an etherize mouse, and one hour after, 25 μL of the secondary test solution was uniformly coated in accordance with the group composition. Prior to coating of the secondary test solution, a thickness of auricle was measured by DIAL […] GAUGE (OZAKI MFG CO., LTD.). Furthermore, the secondary test solution was administered, and 6 hours after, the auricular thickness was measured in the same way as mentioned above, and an increased amount of the auricular thickness was set by deducting the thickness measured prior to administration of the secondary test solution. The inhibition ratio of ear swelling was calculated as below.
Inhibition ratio of ear swelling (%)=(increased amount of auricular thickness in Test Substance Group−increased amount of auricular thickness in Negative Control Group)/(increased amount of auricular thickness in Positive Control Group−increased amount of auricular thickness in Negative Control Group)×100

Test [3] has as its system human three-dimensional culture epidermal model (LabCyte EPI-MODEL). Briefly: Suppression by cholesterol of skin irritation mediator production induced by drugs in a human epidermal cell (Experiment 2). In kind it is cell-based. As to conditions: Drug Plus Cholesterol Group: drug 2 × 10^−3 M plus 1% by mass of cholesterol. The procedure:
as §1, §2, §3
Cholesterol was used as a test substance. The drugs shown in Table 2 were used as the cutaneous irritants.
Tests were conducted by the following group composition. • Drug Only Group: A group with addition of only the drug dispersed in a vehicle, as a test solution. Concentrations of the drugs are shown in Table 2. • Drug Plus Cholesterol Group: A group with addition of the drug and 1% by mass of cholesterol which were dispersed in a vehicle, as a test solution.
The experiment was conducted while other conditions were set in the same manner as in Experiment 1.

Where [4] appears, read: read-out: Relative Production Amount of Skin Irritation Mediator when Production Amount in PMA Only Group is Set to 100: IL-1α.
Setting [5] is: read-out: Relative Production Amount of Skin Irritation Mediator when Production Amount in PMA Only Group is Set to 100: IL-6.
Setting [6] is: read-out: Relative Production Amount of Skin Irritation Mediator when Production Amount in PMA Only Group is Set to 100: IL-8.
Where [7] appears, read: read-out: Relative Production Amount of Skin Irritation Mediator when Production Amount in PMA Only Group is Set to 100: PGE2.

Here are results for six molecules from patent publication US20130053357A1, “SKIN IRRITATION SUPPRESSANT AND TRANSDERMAL PREPARATION” (HISAMITSU PHARMACEUTICAL CO., INC., priority 2010, published 2013).

Like-named read-outs stand apart in the source and are kept apart here.

Consider `CC(C)CCCC(C)CCCC(C)CCCCC(C)CCCC(C)CCCC(C)C` (stereo not drawn) [Squalane, squalane], for which the activity at 0.1 % in test [1] (setting [4]) is 18%; in test [1] (setting [5]) it was 55%; in test [1] (setting [6]), 39%; in test [1] (setting [7]), 41%. Moreover, in test [1], the “Effect on skin irritation mediator production by PMA (in words)” value (“Effect … by PMA (in words)” for short) is “exhibited effects of suppressing the skin irritation mediator production by PMA”. In test [2], the “Inhibition Ratio Of Ear Swelling” value is 61.6%. In addition, the “Effect on croton oil-induced mouse ear swelling reaction (in words)” value in test [2] is on record as “suppress croton oil-induced mouse ear swelling reaction”.
Turning to `CC(C)=CCC/C(C)=C/CC/C(C)=C/CC/C=C(\C)CC/C=C(\C)CCC=C(C)C` [Squalene, squalene], the activity at 0.01 % in test [1] (setting [4]) amounted to 10%; in test [1] (setting [5]), 0%; in test [1] (setting [6]) it was 131%; in test [1] (setting [7]), 88%. In addition, the “Effect … by PMA (in words)” value in test [1] is on record as “exhibited effects of suppressing the skin irritation mediator production by PMA”. For the same molecule, the “Inhibition Ratio Of Ear Swelling” value in test [2] is given as 44.4%. In test [2], the “Effect on croton oil-induced mouse ear swelling reaction (in words)” value is given as “suppress croton oil-induced mouse ear swelling reaction”.
Turning to `CC(C)=CCC[C@@H](C)[C@H]1CC[C@@]2(C)C3=C(CC[C@]12C)[C@@]1(C)CC[C@H](O)C(C)(C)[C@@H]1CC3` [Lanosterol, lanosterol], the activity at 1 % in test [1] (setting [4]) worked out at 76%; in test [1] (setting [5]) it was 90%; in test [1] (setting [6]), 73%; in test [1] (setting [7]), 47%. The “Effect … by PMA (in words)” value in test [1] is “exhibited effects of suppressing the skin irritation mediator production by PMA”. Moreover, the “Inhibition Ratio Of Ear Swelling” value in test [2] worked out at 65.9%. Also, the “Effect on croton oil-induced mouse ear swelling reaction (in words)” value in test [2] was “suppress croton oil-induced mouse ear swelling reaction”.
In the case of `CC1(C)[C@@H](O[C@H]2O[C@H](C(=O)O)[C@@H](O)[C@H](O)[C@H]2O[C@@H]2O[C@H](C(=O)O)[C@@H](O)[C@H](O)[C@H]2O)CC[C@]2(C)[C@H]3C(=O)C=C4[C@@H]5C[C@@](C)(C(=O)O)CC[C@]5(C)CC[C@@]4(C)[C@]3(C)CC[C@@H]12` [Glycyrrhizin, glycyrrhizin], the activity at 0.01 % in test [1] (setting [4]) is 85%; in test [1] (setting [5]), 105%; in test [1] (setting [6]), 154%; in test [1] (setting [7]), 114%. Further, in test [1], the “Effect … by PMA (in words)” value is reported as “exhibited effects of suppressing the skin irritation mediator production by PMA”. Moreover, the “Inhibition Ratio Of Ear Swelling” value in test [2] turned out to be 34.1%. Moreover, the “Effect on croton oil-induced mouse ear swelling reaction (in words)” value in test [2] is listed as “suppress croton oil-induced mouse ear swelling reaction”.
With `CC(C)[C@@H](C)/C=C/[C@@H](C)[C@H]1CC[C@H]2C3=CC=C4C[C@@H](O)CC[C@]4(C)[C@H]3CC[C@]12C` [Ergosterol, ergosterol], the activity at 1 % in test [1] (setting [4]) is 71%; in test [1] (setting [5]), 81%; in test [1] (setting [6]), 111%; in test [1] (setting [7]), 20%. Moreover, the “Effect … by PMA (in words)” value in test [1] is “exhibited effects of suppressing the skin irritation mediator production by PMA”. Moreover, the “Inhibition Ratio Of Ear Swelling” value in test [2] is listed as 38.1%. In addition, the “Effect on croton oil-induced mouse ear swelling reaction (in words)” value in test [2] was “suppress croton oil-induced mouse ear swelling reaction”.
Regarding `CN1CCCC1c1cccnc1` (stereo not drawn) [Nicotine], in test [3], the “Relative Production Amount of Skin Irritation Mediator when Production Amount in Drug Only Group is Set to 100: IL-1α” value was found to be 29, the “Relative Production Amount of Skin Irritation Mediator when Production Amount in Drug Only Group is Set to 100: IL-6” value came to 93, the “Relative Production Amount of Skin Irritation Mediator when Production Amount in Drug Only Group is Set to 100: IL-8” value stood at 67 and the “Relative Production Amount of Skin Irritation Mediator when Production Amount in Drug Only Group is Set to 100: PGE2” value was determined as 58.
